Our source for the IC50 values is patent US6780883B2, “Amide inhibitors of microsomal triglyceride transfer protein” (Warner-Lambert Company, priority 1998, dated 2004).

Assay [1] addresses apolipoprotein(a), [apo(a)], apolipoproteinB-100, [apoB-100], coupling reaction that generates Lp(a) (Homo sapiens, UniProt P04114+P08519). The assay is described as follows: LPABC screen: lipoprotein(a) biochemical coupling assay, Lp(a) content by ELISA. Particulars: recombinant apo(a) 17-kringle (293 cell media) + HepG2 conditioned media, 67 minutes, 37° C., 0.3 to 50 μM compound; read-out: Lp ABC IC50. The protocol: LPABC Screen The lipoprotein(a), [Lp(a)], biochemical coupling assay (LPABC) is used to characterize inhibitors of the apolipoprotein(a), [apo(a)], apolipoproteinB-100, [apoB-100], coupling reaction that generates Lp(a). Conditioned media from 293 cells (ATCC CRL-1573), permanently transfected with an apo(a) 17-kringle cDNA expression construct (pcDNA-AMP, In Vitrogen, Carlsbad, Calif.) using standard molecular biology techniques, was used as a source of recombinant apo(a) is diluted 1:3 with phosphate buffered saline (PBS) and 90 μL is pipetted into each well of a 96-well plate and placed into a 37° C. incubator for 10 minutes. Twenty microliters of a 0.3 to 50 μM solution of a compound of the present invention in PBS is added to the warmed plate. Ninety microliters of HepG2 (ATCC HB-8065) cell conditioned media diluted 1:3 with PBS is added to the apo(a)/compound mixture and mixed by pipetting up and down 5 times. The reaction is incubated for 67 minutes in a 37° C. incubator. A 100 μL aliquot of the reaction is removed and assayed for its Lp(a) content by an enzyme linked immunosorbent assay (ELISA).
Background: An ELISA detects its analyte on a solid surface through an enzyme-linked reagent.

In assay [2] the test system is Lp(a) production in HepG2^K17 cells. The assay is described as follows: LPA3 screen: inhibition of Lp(a) production in transfected HepG2 cells, Lp(a) in media by ELISA. It counts as cell-based. Particulars: Homo sapiens, 8 hours, 0.3 to 50 μM compound, Lp(a) normalized for total protein, read-out: Lp A3 IC50. How it is done:
The LPA3 screen is used to identify compounds that inhibit Lp(a) production. This screen employs permanently transfected HepG2 cells (HepG2^K17) that are generated using an apo(a) 17-kringle cDNA expression construct (pcDNA-AMP, In Vitrogen, Carlsbad, Calif.) in accordance with methods that are well-known in molecular biology.
HepG2^K17 cells are seeded in 96-well plates at a density of 75,000 cells per well in 0.25 mL of Dulbecco's Modified Eagle Media (DMEM) containing 10% fetal bovine serum (FBS). Seeded plates are incubated overnight in a 37° C., 5% CO2/95% 02 incubator. The media is removed, replaced with (1) fresh media, or (2) fresh media plus 0.3 to 50 μM of a compound of the present invention in 20 μL of PBS, and the plates returned to the incubator for 8 hours. After the additional 8 hours of incubation, Lp(a) is assayed in the media by ELISA. Cells are digested with 0.5N NaOH overnight and assayed for total protein. Lp(a) values are normalized for total protein content.

In general, IC50 refers to the concentration that gives 50% inhibition. As for `COc1ccc(CN(C(=O)c2ccc(OC)c(OC)c2)c2ccccc2)cc1` [Example 44, 3,4-Dimethoxy-N-(4-methoxy-benzyl)-N-phenyl-benzamide], the IC50 in assay [1] is > 50 µM; in assay [2] it was 51.4 µM.
On to `O=C(c1ccccc1Br)N(Cc1ccccc1-c1ccccc1)c1ccccn1` [Example 111, N-Biphenyl-2-ylmethyl-2-bromo-N-pyridin-2-yl-benzamide], for which the figures for the IC50 in assay [1] and in assay [2] were > 50 µM and 18.7 µM, respectively.
Regarding `CCCCOc1ccc(N(Cc2ccccc2-c2ccccc2)C(=O)CN(CC)CC)cn1` [Example 84, N-Biphenyl-2-ylmethyl-N-(6-butoxy-pyridin-3-yl)-2-diethylamino-acetamide], the IC50 in assay [1] was > 50 µM; in assay [2], 43.7 µM.
On the same counts, the results for `CCOc1ccccc1C(=O)N(Cc1cc(Br)cc(Br)c1)c1cccnc1` [Example 75, N-(3,5-Dibromo-benzyl)-2-ethoxy-N-pyridin-3-yl-benzamide] are > 50 µM and 14.9 µM.
In the same order, the values of `COc1ccc(N(Cc2ccccc2-c2ccccc2)C(=O)c2ccccc2[S+]([O-])C(C)C)cc1OC` (stereo not drawn) [Example 142, N-Biphenyl-2-ylmethyl-N-(3,4-dimethoxy-phenyl)-2-(propane-2-sulfinyl)-benzamide] are > 50 µM and 7 µM.
In the same order, the values of `O=C(c1cc2ccccc2s1)N(Cc1ccccc1-c1ccccc1)c1ccncc1` [Example 93, Benzo[b]thiophene-2-carboxylic acid biphenyl-2-ylmethyl-pyridin-4-yl-amide] are > 50 µM and 10.5 µM.
Consider `COc1ccc(N(Cc2ccccc2-c2ccccc2)C(=O)c2ccccc2SC)cc1OC` [Example 134, N-Biphenyl-2-ylmethyl-N-(3,4-dimethoxy-phenyl)-2-methylsulfanyl-benzamide], for which the IC50 in assay [1] was > 50 µM; in assay [2], 12.9 µM.
With `COc1ccccc1C(=O)N(Cc1ccccc1-c1ccccc1)c1ccncc1` [Example 119, N-Biphenyl-2-ylmethyl-2-methoxy-N-pyridin-4-yl-benzamide], the IC50 in assay [1] was > 50 µM; in assay [2] it was 4.8 µM.
In the case of `COc1ccc(C(=O)N(Cc2ccc(C(C)(C)C)cc2)c2ccccc2)cc1OC` [Example 48, N-(4-tert-Butyl-benzyl)-3,4-dimethoxy-N-phenyl-benzamide], the IC50 in assay [1] was > 50 µM; in assay [2], 30.9 µM.
In the same order, the values of `Cc1ccsc1C(=O)N(Cc1ccc2c(c1)C(C)(C)CCC2(C)C)c1ccc(I)cc1` [Example 59, 3-Methyl-thiophene-2-carboxylic acid (4-iodo-phenyl)-(5,5,8,8-tetramethyl-5,6,7,8-tetrahydro-naphthalen-2-ylmethyl)-amide] are > 50 µM and 41.1 µM.
In the same order, the values of `COc1cc(C(=O)N(Cc2ccc3ccccc3c2)c2cnc3ccccc3c2)cc(OC)c1OC` [Example 62, 3,4,5-Trimethoxy-N-naphthalen-2-ylmethyl-N-quinolin-3-yl-benzamide] are > 50 µM and 22.2 µM.
In the same order, the values of `CCOc1ccccc1C(=O)N(Cc1cc(C(C)(C)C)cc(C(C)(C)C)c1)c1cccnc1` [Example 74, N-(3,5-Di-tert-butyl-benzyl)-2-ethoxy-N-pyridin-3-yl-benzamide] are > 50 µM and 11.6 µM.
Turning to `CCOc1ccccc1C(=O)N(Cc1ccccc1-c1ccccc1)c1ccc(OC)cc1` [Example 104, N-Biphenyl-2-ylmethyl-2-ethoxy-N-(4-methoxy-phenyl)-benzamide], the IC50 in assay [1] was > 50 µM; in assay [2], 11.9 µM.
Consider `COc1cccc(CN(C(=O)c2ccccc2)c2ccccc2OC)c1` [Example 87, N-(3-Methoxy-benzyl)-N-(2-methoxy-phenyl)-benzamide], for which the IC50 in assay [1] is > 50 µM; in assay [2], 19.2 µM.
In the same order, the values of `CC(C)c1ccc(C(=O)N(Cc2ccccc2-c2ccccc2)c2cccnc2)cc1` [Example 72, N-Biphenyl-2-ylmethyl-4-isopropyl-N-pyridin-3-yl-benzamide] are > 50 µM and 37.1 µM.
Consider `CCCCOc1ccc(N(Cc2ccc3c(c2)C(C)(C)CCC3(C)C)C(=O)CN(CC)CC)cn1` [Example 82, N-(6-Butoxy-pyridin-3-yl)-2-diethylamino-N-(5,5,8,8-tetramethyl-5,6,7,8-tetrahydro-naphthalen-2-ylmethyl)-acetamide], for which the IC50 in assay [1] is > 50 µM; in assay [2], 36.8 µM.
On the same counts, the results for `CCOc1ccccc1C(=O)N(Cc1ccc2ccccc2c1)c1cccnc1` [Example 79, 2-Ethoxy-N-naphthalen-2-ylmethyl-N-pyridin-3-yl-benzamide] are > 50 µM and 17 µM.
In the case of `COc1ccc(N(Cc2ccc3c(c2)C(C)(C)CCC3(C)C)C(=O)c2cc(OC)c(OC)c(OC)c2)cn1` [Example 65, 3,4,5-Trimethoxy-N-(6-methoxy-pyridin-3-yl)-N-(5,5,8,8-tetramethyl-5,6,7,8-tetrahydro-naphthalen-2-ylmethyl)-benzamide], the IC50 was > 50 µM in assay [1] and 32.6 µM in assay [2].
In the case of `CCN(CC)CCCc1ccc(N(Cc2ccccc2-c2ccccc2)C(=O)c2ccccc2)cc1` [Example 58, N-Biphenyl-2-ylmethyl-N-[4-(3-diethylamino-propyl)-phenyl]-benzamide], the IC50 was > 50 µM in assay [1] and 11.6 µM in assay [2].
In the same order, the values of `COc1ccc(C(=O)N(Cc2ccc(Cl)c(Cl)c2)c2ccccc2)cc1OC` [Example 46, N-(3,4-Dichloro-benzyl)-3,4-dimethoxy-N-phenyl-benzamide] are > 50 µM and 35.1 µM.
`CCC[S+]([O-])c1ccccc1C(=O)N(Cc1ccccc1-c1ccccc1)c1ccc(OC)c(OC)c1` (stereo not drawn) [Example 141, N-Biphenyl-2-ylmethyl-N-(3,4-dimethoxy-phenyl)-2-(propane-1-sulfinyl)-benzamide]: the IC50 in assay [1] is > 50 µM; in assay [2] it was 6 µM.
Consider `O=C(c1ccccc1OCc1ccccc1)N(Cc1ccccc1-c1ccccc1)c1ccccn1` [Example 113, 2-Benzyloxy-N-biphenyl-2-ylmethyl-N-pyridin-2-yl-benzamide], for which the IC50 in assay [1] was > 50 µM; in assay [2], 25.1 µM.
On the same counts, the results for `CCOc1ccccc1C(=O)N(Cc1ccc(C(C)(C)C)cc1)c1cccnc1` [Example 80, N-(4-tert-Butyl-benzyl)-2-ethoxy-N-pyridin-3-yl-benzamide] are > 50 µM and 19.2 µM.
Consider `COc1ccc(C(=O)N(Cc2ccccc2-c2ccccc2)c2ccccc2)cc1OC` [Example 49, N-Biphenyl-2-ylmethyl-3,4-dimethoxy-N-phenyl-benzamide], for which the IC50 in assay [1] is > 50 µM; in assay [2], 14 µM.
With `O=C(c1ccccc1[N+](=O)[O-])N(Cc1ccccc1-c1ccccc1)c1ccccn1` [Example 112, N-Biphenyl-2-ylmethyl-2-nitro-N-pyridin-2-yl-benzamide], the IC50 in assay [1] is > 50 µM; in assay [2], 23.7 µM.
On the same counts, the results for `COc1ccc(N(Cc2ccccc2-c2ccccc2)C(=O)c2ccccc2Br)cc1` [Example 108, N-Biphenyl-2-ylmethyl-2-bromo-N-(4-methoxy-phenyl)-benzamide] are > 50 µM and 37.7 µM.
In the same order, the values of `O=C(c1ccccc1Br)N(Cc1ccccc1-c1ccccc1)c1ccncc1` [Example 121, N-Biphenyl-2-ylmethyl-2-bromo-N-pyridin-4-yl-benzamide] are > 50 µM and 3.8 µM.
On the same counts, the results for `COc1ccc(CN(C(=O)c2ccccc2)c2ccccc2OC)cc1` [Example 86, N-(4-Methoxy-benzyl)-N-(2-methoxy-phenyl)-benzamide] are > 50 µM and 30.1 µM.
`O=C(c1sc2ccccc2c1Cl)N(Cc1cccnc1)Cc1ccccc1-c1ccccc1` [Example 99, 3-Chloro-benzo[b]thiophene-2-carboxylic acid biphenyl-2-ylmethyl-pyridin-3-ylmethyl-amide]: the results for the IC50 in assay [1] and in assay [2] were > 50 µM and 24.7 µM, respectively.
On the same counts, the results for `COc1ccccc1C(=O)N(Cc1cccnc1)Cc1ccccc1-c1ccccc1` [Example 92, N-Biphenyl-2-ylmethyl-2-methoxy-N-pyridin-3-ylmethyl-benzamide] are > 50 µM and 6.3 µM.
